Assay results as given in ChEMBL document CHEMBL5537182, “Small Molecule Benzothiophene with In Vivo Efficacy in a Mouse Model of Drug-Resistant Enterococcus faecium Infection” (J Med Chem, 2024).
In brackets after ≈: the same amount, converted by molar mass. Activity calls are given as the source filed them. The calls are words filed in the database; no cut-off is given here.

Experiments:
[1] = test system: Enterococcus faecium; assay: Anti-bacterial activity against drug-resistant Enterococcus faecium NCTC 7171 assessed as invisible pellets in media measured after overnight incubation; format: functional
[2] = test system: Enterococcus faecium; assay: Anti-bacterial activity against vancomycin-resistant Enterococcus faecium EN 2966 assessed as invisible pellets in media measured after overnight incubation; format: functional
[3] = Cytotoxicity against African green monkey Vero cells assessed as cell viability incubated for 48 hrs by MTT assay; format: toxicity, cell-based; details: chlorocebus sabaeus
[4] = Metabolic stability in mouse liver microsomes assessed as half life by LC-MS/MS analysis; format: ADME, Microsome
[5] = Kinetic solubility of the compound in aqueous buffer at pH 7.4 measured after 4 hrs by LC-MS/MS analysis; format: physicochemical; details: read-out: Kinetic_solubility
[6] = AUC (0 to 5 hrs) in CD-1 mouse at 25 mg/kg, po by LC-MS/MS analysis; format: ADME, organism-based; details: in vivo; for AUC(0-t): CD-1, mouse
[7] = Metabolic stability in human liver microsomes assessed as half life by LC-MS/MS analysis; format: ADME, Microsome
[8] = Plasma stability in human plasma assessed as remaining at 5 uM measured after 5 hrs by LC-MS/MS analysis; format: ADME, cell-free
[9] = Plasma stability in mouse plasma assessed as remaining at 5 uM measured after 5 hrs by LC-MS/MS analysis; format: ADME, cell-free
[10] = Plasma protein binding in human at 5 uM measured after 5 hrs by LC-MS/MS analysis; format: ADME, cell-free; details: read-out: PPB (converted)
[11] = Plasma protein binding in mouse at 5 uM measured after 5 hrs by LC-MS/MS analysis; format: ADME, cell-free; details: read-out: PPB
[12] = molecular target: T1, Cytochrome P450 1A2 (Homo sapiens, UniProt P05177); assay: Inhibition of CYP1A2 in human liver microsomes using phenacetin as substrate; format: ADME, Microsome
T1 sequence (P05177 whole entry): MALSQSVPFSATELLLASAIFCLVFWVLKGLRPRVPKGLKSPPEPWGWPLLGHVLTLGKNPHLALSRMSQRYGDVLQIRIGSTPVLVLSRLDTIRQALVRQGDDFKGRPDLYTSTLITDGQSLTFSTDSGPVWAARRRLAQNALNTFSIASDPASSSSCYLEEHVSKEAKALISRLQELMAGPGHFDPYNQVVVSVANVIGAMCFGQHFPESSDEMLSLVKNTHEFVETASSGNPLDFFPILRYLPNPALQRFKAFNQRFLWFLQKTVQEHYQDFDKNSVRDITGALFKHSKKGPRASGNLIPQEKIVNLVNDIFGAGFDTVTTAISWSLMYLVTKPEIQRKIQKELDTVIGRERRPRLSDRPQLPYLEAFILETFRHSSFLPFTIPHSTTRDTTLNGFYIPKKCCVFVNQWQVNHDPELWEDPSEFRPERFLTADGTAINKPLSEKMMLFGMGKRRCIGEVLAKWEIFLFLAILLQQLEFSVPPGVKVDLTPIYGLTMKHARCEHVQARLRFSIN

[13] = molecular target: Cytochrome P450 2C9 (Homo sapiens, UniProt P11712); assay: Inhibition of CYP2C9 in human liver microsomes using diclofenac as substrate; format: ADME, Microsome
[14] = molecular target: Cytochrome P450 2C19 (Homo sapiens, UniProt P33261); assay: Inhibition of CYP2C19 in human liver microsomes using omeprazole as substrate; format: ADME, Microsome
[15] = molecular target: Cytochrome P450 2D6 (Homo sapiens, UniProt P10635); assay: Inhibition of CYP2D6 in human liver microsomes using dextromethorphan as substrate; format: ADME, Microsome
[16] = molecular target: Cytochrome P450 3A4 (Homo sapiens, UniProt P08684); assay: Inhibition of CYP3A4 in human liver microsomes using midazolam as substrate; format: ADME, Microsome
[17] = Oral bioavailability in CD-1 mouse at 25 mg/kg by LC-MS/MS analysis; format: ADME, organism-based; details: in vivo
[18] = Toxicity in CD-1 mouse assessed as tolerability at 300 mg/kg, po; format: organism-based; details: in vivo
[19] = test system: Enterococcus faecium; assay: In vivo anti-bacterial activity against vancomycin-resistant Enterococcus faecium EN 2966 infected immunocompetent mouse model of acute peritonitis-sepsis assessed as protection at 150 mg/kg, po measured upto 3 days; format: functional, organism-based; details: time <= 3.0 day
[20] = test system: Enterococcus faecium; assay: Release of NO in drug-resistant Enterococcus faecium NCTC 7171 assessed as NO generation at 100 uM measured upto 2 hrs by Griess assay; format: functional, organism-based
[21] = test system: Staphylococcus aureus; assay: Anti-bacterial activity against Staphylococcus aureus ATCC 43300 assessed as invisible pellets in media measured after overnight incubation; format: functional
[22] = test system: Klebsiella pneumoniae; assay: Anti-bacterial activity against Klebsiella pneumonia BAA 2146 assessed as invisible pellets in media measured after overnight incubation; format: functional
[23] = test system: Acinetobacter baumannii; assay: Anti-bacterial activity against Acinetobacter baumannii ATCC 19606 assessed as invisible pellets in media measured after overnight incubation; format: functional
[24] = test system: Pseudomonas aeruginosa; assay: Anti-bacterial activity against Pseudomonas aeruginosa HER 1018 assessed as invisible pellets in media measured after overnight incubation; format: functional
[25] = test system: Enterococcus faecium; assay: Bactericidal activity against drug-resistant Enterococcus faecium NCTC 7171 assessed as invisible pellets in media measured after 2 days incubation; format: functional; details: NCTC 7171, 48 h, time 2 day
[26] = test system: Enterococcus faecium; assay: In vivo anti-bacterial activity against vancomycin-resistant Enterococcus faecium EN 2966 infected immunocompetent mouse model of acute peritonitis-sepsis assessed as protection at 100 mg/kg, sc measured upto 3 days; format: functional, organism-based; details: time <= 3.0 day

Cytochrome P450 2C19, sequence (P33261 whole entry): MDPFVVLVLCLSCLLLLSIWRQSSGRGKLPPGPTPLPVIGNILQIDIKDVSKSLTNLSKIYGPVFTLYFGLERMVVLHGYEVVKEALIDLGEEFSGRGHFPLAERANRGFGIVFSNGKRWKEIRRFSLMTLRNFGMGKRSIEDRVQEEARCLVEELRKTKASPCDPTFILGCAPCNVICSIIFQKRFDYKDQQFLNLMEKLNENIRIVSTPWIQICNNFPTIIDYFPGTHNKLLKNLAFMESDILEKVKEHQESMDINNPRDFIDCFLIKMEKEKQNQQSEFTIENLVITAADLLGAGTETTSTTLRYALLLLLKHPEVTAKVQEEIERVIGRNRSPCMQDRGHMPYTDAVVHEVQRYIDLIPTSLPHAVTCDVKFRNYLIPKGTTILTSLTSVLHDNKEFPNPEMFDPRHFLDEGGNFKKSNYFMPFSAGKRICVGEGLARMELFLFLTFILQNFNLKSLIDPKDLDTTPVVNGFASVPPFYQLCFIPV
Cytochrome P450 2C9, sequence (P11712 whole entry): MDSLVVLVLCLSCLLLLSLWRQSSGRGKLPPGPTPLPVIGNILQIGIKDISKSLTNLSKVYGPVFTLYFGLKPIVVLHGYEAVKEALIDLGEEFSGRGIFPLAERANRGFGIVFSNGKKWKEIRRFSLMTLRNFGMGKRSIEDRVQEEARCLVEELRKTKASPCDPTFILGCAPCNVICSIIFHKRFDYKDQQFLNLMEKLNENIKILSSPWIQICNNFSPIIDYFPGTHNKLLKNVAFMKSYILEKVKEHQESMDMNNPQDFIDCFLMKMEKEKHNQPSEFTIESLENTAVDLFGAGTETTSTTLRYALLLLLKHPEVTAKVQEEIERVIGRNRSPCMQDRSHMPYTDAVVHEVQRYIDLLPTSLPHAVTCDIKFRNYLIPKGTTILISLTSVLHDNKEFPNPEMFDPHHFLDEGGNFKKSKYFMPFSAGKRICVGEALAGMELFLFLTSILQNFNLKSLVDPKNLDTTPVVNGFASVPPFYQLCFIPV
Cytochrome P450 2D6, sequence (P10635 whole entry): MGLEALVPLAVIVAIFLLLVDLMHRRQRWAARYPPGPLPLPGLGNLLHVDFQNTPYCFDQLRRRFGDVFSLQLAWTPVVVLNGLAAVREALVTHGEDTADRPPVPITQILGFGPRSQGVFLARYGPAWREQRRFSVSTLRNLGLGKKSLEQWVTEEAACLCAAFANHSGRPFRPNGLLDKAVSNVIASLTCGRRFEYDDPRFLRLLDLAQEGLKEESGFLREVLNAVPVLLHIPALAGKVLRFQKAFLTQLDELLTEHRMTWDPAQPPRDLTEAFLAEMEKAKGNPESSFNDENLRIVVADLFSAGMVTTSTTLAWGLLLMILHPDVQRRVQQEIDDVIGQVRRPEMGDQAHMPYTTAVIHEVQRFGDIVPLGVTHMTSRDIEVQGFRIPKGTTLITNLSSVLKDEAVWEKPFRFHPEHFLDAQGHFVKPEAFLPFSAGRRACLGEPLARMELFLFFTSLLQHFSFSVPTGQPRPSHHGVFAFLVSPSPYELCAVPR
Cytochrome P450 3A4, sequence (P08684 whole entry): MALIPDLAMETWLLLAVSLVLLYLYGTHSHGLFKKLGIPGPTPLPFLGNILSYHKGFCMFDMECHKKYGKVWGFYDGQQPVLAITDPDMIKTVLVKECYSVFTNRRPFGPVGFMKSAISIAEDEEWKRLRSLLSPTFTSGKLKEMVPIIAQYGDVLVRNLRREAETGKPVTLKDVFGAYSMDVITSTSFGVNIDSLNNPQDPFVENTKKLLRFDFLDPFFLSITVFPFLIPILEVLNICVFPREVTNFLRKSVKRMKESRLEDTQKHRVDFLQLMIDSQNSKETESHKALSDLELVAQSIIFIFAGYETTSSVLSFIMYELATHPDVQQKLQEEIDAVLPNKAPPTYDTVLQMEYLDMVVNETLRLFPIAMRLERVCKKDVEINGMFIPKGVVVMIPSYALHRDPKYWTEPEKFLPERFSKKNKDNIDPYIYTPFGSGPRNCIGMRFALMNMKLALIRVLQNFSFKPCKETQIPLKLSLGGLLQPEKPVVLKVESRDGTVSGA

Row | Compound | MIC [1] [µM] | CC50 [3] [µM] | further results
1 | CC(=O)NC[C@H]1CN(c2ccc(N3CCOCC3)c(F)c2)C(=O)O1 [LINEZOLID] | 4.6 (≈ 1.55 µg/mL) |  | MIC [2]: 4.7 µM (≈ 1.59 µg/mL)
2 | O=C(NNC(=O)c1cc2c(Cl)cc(Cl)cc2s1)c1ccc([N+](=O)[O-])o1 | 62 (≈ 24.8 µg/mL) | > 124 | 
3 | CC(C)(NC(=O)c1ccc([N+](=O)[O-])o1)c1cc2ccccc2s1 | > 150 | 38 | 
4 | O=C(NNC(=O)c1sc2cc(Cl)ccc2c1Cl)c1ccc([N+](=O)[O-])s1 | > 120 | > 120 | 
5 | O=C(NNC(=O)c1sc2cccc(Cl)c2c1Cl)c1ccc([N+](=O)[O-])o1 | 7.8 (≈ 3.12 µg/mL) | > 124 | 
6 | O=C(NNC(=O)c1sc2cc(Cl)ccc2c1Cl)c1ccc([N+](=O)[O-])o1 | 1.9 (≈ 0.76 µg/mL) | > 120 | t1/2 [4]: 16.6 min; solubility kinetic at 4 h [5]: 0.35 µM (≈ 0.14 µg/mL); AUC ([6]; mouse, po, 25 mg/kg): 75175 ng·h/mL; t1/2 [7]: 85.6 min; Stability [8]: 76.6%; Stability [9]: 89.2%; fraction unbound at 5 h, 5 µM [10]: 0.007; fraction unbound at 5 h, 5 µM [11]: 0.0001; IC50 [12]: > 50 µM; IC50 [13]: > 50 µM; IC50 [14]: > 50 µM; IC50 [15]: > 50 µM; IC50 [16]: > 50 µM; F [17]: 47%; Activity [18]: Non-Toxic; MIC [2]: 1.9 µM (≈ 0.76 µg/mL); Activity [19]: Active; Activity [20]: inactive
7 | O=C(NNC(=O)c1cc2c(Cl)cccc2s1)c1ccc([N+](=O)[O-])o1 | 34 (≈ 12.4 µg/mL) | 136 | 
8 | O=C(NNC(=O)c1sc2cc(Cl)ccc2c1Cl)c1ccc(Cl)s1 | > 123 | 123 | 
9 | C[C@@H](O)[C@H]1C(=O)N2C(C(=O)O)=C(S[C@@H]3CN[C@H](C(=O)N(C)C)C3)[C@H](C)[C@H]12 [MEROPENEM] | 19 (≈ 7.29 µg/mL) |  | 
10 | O=C(NNC(=O)c1nc2ccccc2s1)c1ccc([N+](=O)[O-])o1 | 30 (≈ 9.97 µg/mL) | 150 | 
11 | O=C(NNC(=O)c1cc2cc(Cl)ccc2s1)c1ccc([N+](=O)[O-])o1 | > 137 | > 137 | 
12 | O=C(NNC(=O)c1sc2ccccc2c1Cl)c1ccc([N+](=O)[O-])o1 | 17 (≈ 6.22 µg/mL) | 68 | 
13 | CCCCCCCCCC(=O)N[C@@H](Cc1c[nH]c2ccccc12)C(=O)N[C@H](CC(N)=O)C(=O)N[C@@H](CC(=O)O)C(=O)N[C@@H]1C(=O)NCC(=O)N[C@@H](CCCN)C(=O)N[C@@H](CC(=O)O)C(=O)N[C@H](C)C(=O)N[C@@H](CC(=O)O)C(=O)NCC(=O)N[C@H](CO)C(=O)N[C@@H]([C@H](C)CC(=O)O)C(=O)N[C@@H](CC(=O)c2ccccc2N)C(=O)O[C@@H]1C | 10 (≈ 16.2 µg/mL) |  | 
14 | NC[C@H]1O[C@H](O[C@H]2[C@H](O)[C@@H](O[C@H]3O[C@H](CO)[C@@H](O)[C@H](N)[C@H]3O)[C@H](N)C[C@@H]2N)[C@H](O)[C@@H](O)[C@@H]1O [KANAMYCIN] | > 24 |  | 
15 | O=C(NNC(=O)c1cc2cc(Cl)cc(Cl)c2s1)c1ccc([N+](=O)[O-])o1 | 0.75 (≈ 0.3 µg/mL) | 124 | t1/2 [4]: 13.3 min; solubility kinetic at 4 h [5]: 0.55 µM (≈ 0.22 µg/mL); AUC(0-t) [6]: 111000 ng·h/mL
16 | O=C(NNC(=O)c1cc2ccc(Cl)cc2s1)c1ccc([N+](=O)[O-])o1 | > 136 | > 136 | 
17 | O=C(NNC(=O)c1csc2ccccc12)c1ccc([N+](=O)[O-])o1 | 15 (≈ 4.97 µg/mL) | 75 | 

Row | Compound | MIC [1] [µM] | CC50 [3] [µM] | further results
18 | O=C(NNC(=O)c1ccc([N+](=O)[O-])o1)c1cc2ccccc2[nH]1 | > 100 | > 160 | 
19 | O=C(NNC(=O)c1cc2cc(C(F)(F)F)cc(Cl)c2s1)c1ccc([N+](=O)[O-])o1 | 1.8 (≈ 0.781 µg/mL) | > 110 | MIC [21]: 16 µM (≈ 6.94 µg/mL); MIC [22]: > 120 µM; MIC [23]: > 120 µM; MIC [24]: > 120 µM; t1/2 [4]: 57.8 min; solubility kinetic at 4 h [5]: 0.06 µM (≈ 0.026 µg/mL); AUC(0-t) [6]: 43800 ng·h/mL; MBC [25]: 7.7 µM (≈ 3.34 µg/mL)
20 | O=C(N/N=C/c1cc2ccccc2s1)c1ccc([N+](=O)[O-])o1 | > 158 | 39 | 
21 | O=C(NNC(=O)c1sc2cc(C(F)(F)F)ccc2c1Cl)c1ccc([N+](=O)[O-])o1 | 3.6 (≈ 1.56 µg/mL) | 110 | 
22 | O=[N+]([O-])c1ccc(-c2nnc(-c3cc4ccccc4s3)o2)o1 | > 160 | 160 | 
23 | O=C(NNC(=O)c1sc2c(Cl)cccc2c1Cl)c1ccc([N+](=O)[O-])o1 | 62 (≈ 24.8 µg/mL) | > 120 | 
24 | O=C(NNC(=O)c1cc2cccnc2s1)c1ccc([N+](=O)[O-])o1 | > 100 | 150 | 
25 | O=C(NNC(=O)c1sc2cc(Cl)ccc2c1Cl)c1ccc(Cl)o1 | > 128 | 128 | 
26 | O=C(NNC(=O)c1cc2ccccc2s1)c1ccc([N+](=O)[O-])o1 | > 174 |  | MIC [21]: > 150 µM; MIC [22]: > 150 µM; MIC [23]: > 150 µM; MIC [24]: > 150 µM; t1/2 [4]: 3.3 min; solubility kinetic at 4 h [5]: 103 µM (≈ 34.1 µg/mL); AUC(0-t) [6]: 1280 ng·h/mL
27 | O=C(NNC(=O)c1cc2ccccc2o1)c1ccc([N+](=O)[O-])o1 | > 100 | 39 | 
28 | O=C(NCCNC(=O)c1cc2ccccc2s1)c1ccc([N+](=O)[O-])o1 | > 140 | 139 | 
29 | O=C(NNC(=O)c1sc2ccc(Cl)cc2c1Cl)c1ccc([N+](=O)[O-])o1 | > 124 | > 124 | 
30 | CN[C@H](CC(C)C)C(=O)N[C@H]1C(=O)N[C@@H](CC(N)=O)C(=O)N[C@H]2C(=O)N[C@H]3C(=O)N[C@H](C(=O)N[C@H](C(=O)O)c4cc(O)cc(O)c4-c4cc3ccc4O)[C@H](O)c3ccc(c(Cl)c3)Oc3cc2cc(c3O[C@@H]2O[C@H](CO)[C@@H](O)[C@H](O)[C@H]2O[C@H]2C[C@](C)(N)[C@H](O)[C@H](C)O2)Oc2ccc(cc2Cl)[C@H]1O [VANCOMYCIN] | 1.1 (≈ 1.59 µg/mL) |  | MIC [2]: ≥ 30 µM; Activity [26]: Active
31 | O=C(c1ccc([N+](=O)[O-])o1)N1CCN(C(=O)c2cc3ccccc3s2)CC1 | > 130 | 16 | 
32 | O=C(NNC(=O)c1cc2c(s1)CCCC2)c1ccc([N+](=O)[O-])o1 | 37 (≈ 12.4 µg/mL) | 37 | 
33 | O=C(NNC(=O)c1cc2cccc(Cl)c2s1)c1ccc([N+](=O)[O-])o1 | 4.2 (≈ 1.54 µg/mL) | 68 | 
34 | O=C(NNC(=O)c1sc2cc(F)ccc2c1Cl)c1ccc([N+](=O)[O-])o1 | > 130 | > 130 | 
